Data taken from patent US12285393B2, “Roles of modulators of intersectin-Cdc42 signaling in Alzheimer's disease” (priority 2017, dated 2025).
Peptide text beside a SMILES is read from it. * marks the point of attachment. Trt = c1ccc(C(c2ccccc2)(c2ccccc2)*)cc1; Cbz = O=C(OCc1ccccc1)*; NHNH2 = NN*

Target: Cdc42 (Homo sapiens, UniProt P60953)
Assay: Cdc42-GEF-assay, additional compound screening
Type: biochemical
Design: purchased Cytoskeleton Inc
Conditions: for % ZCL278 (activator activity): percentages of ZCL278 activity normalized to batch, more than 100% = more potent activator, Table 9; for % ZCL367 (inhibitor activity): percentages of ZCL367 normalized to batch, less than 100% = more potent inhibitor; for % ZCL278 (with GEF): assay slope relative to ZCL278, normalized to batch; for % ZCL278 (without GEF): baseline slope relative to ZCL278, normalized to batch
Method: Rho-GEF IC50 Assay: Rho-GEF assay (Cytoskeleton Inc., Denver, Colorado, United States of America) was conducted per manufacturer's instructions (λex=360 nm, λem=460 nm). Briefly, a solution (50 μL) of purified Rho GTPase (1 μM) and mant-GTP (1.5 μM) with or without compound (0.001-500 μM) was prepared and the absorbance monitored for 10-30 min to obtain the background/baseline. The addition of purified GEF/DH domain (0.08-0.2 μM) was carried out simultaneously and the absorbance was recorded for 30-45 min. The linear slope following the addition of the GEF was calculated and expressed as percentage of the control and plotted on an IC50 curve.
Cdc42 (1 μM) was incubated with mant-GTP (1.5 μM) and varying concentrations of ZCL278, ZCL279, or ZCL367 (5-500 μM). Fluorescent readings were taken every minute for 10 m to acquire the baseline. The GEF/DH domain (0.08-0.2 μM) was added followed by readings taken every minute for another 30 m. The linear phase was calculated from within the time period of 12-22 m. Cdc42 (1 μM) was incubated with mant-GTP (1.5 μM) and varying concentrations of ZCL278, ZCL279, or ZCL367 (5-500 μM). Fluorescent readings were taken every minute for 30 m to monitor the binding of mant-GTP in the absence of GEF/DH domain.
Cdc42-GEF-assays were conducted on additional screening compounds in batches of 9 compounds per batch as described above in Example 2 using ZCL278 and ZCL367 as standards. Screening compounds were taken from the Specs Chemistry Database of 197,000 compounds for small molecule or the National Cancer Institute Compound Library. […] These compounds promote Cdc42-mantGTP binding without GEF. It is possible that these compounds can inhibit Cdc42-mantGTP binding with GEF. […] These compounds appear to have activity like ZCL279. […] However, upon the addition of GEF, the compounds appear to facilitate the binding of mantGTP to Cdc42 (high assay slope, relative to ZCL278)

Sequence of Cdc42 (P60953 whole entry): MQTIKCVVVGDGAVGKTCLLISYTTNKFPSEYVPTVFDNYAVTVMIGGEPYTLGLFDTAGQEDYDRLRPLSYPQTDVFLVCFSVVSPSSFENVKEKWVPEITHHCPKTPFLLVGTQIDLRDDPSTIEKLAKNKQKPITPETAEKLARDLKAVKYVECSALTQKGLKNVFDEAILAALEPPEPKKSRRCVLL

| % ZCL367 (inhibitor activity) [%] | % ZCL278 (with GEF) [%] | % ZCL278 (without GEF) [%] | SMILES | other results |
| --- | --- | --- | --- | --- |
| – | – | – | NC1C=CN(C2OC(CO)C(O)C2O)C(=O)N1O (stereo not shown) [NSC128731] | % ZCL278 (activator activity): 108.28% |
| 88.55 | – | – | NC(=O)CCN(Cc1ccccc1)C(=O)Nc1cccc(OC2CCCC2)c1 [ZCL1139] | % ZCL278 (activator activity): 100.29% |
| – | 103.291 | 59.173 | O=C(CCN1C(=O)C2C(C1=O)[C@H]1C=C[C@@H]2C1)Nc1cccc2ccccc12 (stereo partly shown) [ZCL1119] | – |
| 55.74 | – | – | O=C1/C(=C/c2ccc(O)c(O)c2)SC(=S)N1Nc1ccccc1 [ZCL1109] | – |
| – | 127.593 | 12.229 | NS(=O)(=O)c1ccc(NC2OCC(O)C(O)C2O)cc1 (stereo not shown) [NSC158437] | – |
| – | 96.844 | 34.327 | O=c1[nH]cc(C2OCC(O)C(O)C2O)c(=O)[nH]1 (stereo not shown) [NSC94024] | – |
| 109.35 | – | – | O=c1c2ccccc2nc(/C=C/c2c(O)ccc3ccccc23)n1-c1ccc(O)cc1 [ZCL1111] | – |
| – | 96.611 | 31.919 | NNC(=O)C(Cc1cnc[nH]1)NC(=O)CNC(=O)C(CSC(c1ccccc1)(c1ccccc1)c1ccccc1)NC(=O)OCc1ccccc1 (stereo not drawn) [NSC129911] (Cbz-Cys(Trt)-Gly-His-NHNH2; configuration not given here) | – |
| 70.58 | – | – | Cc1c2oc3c(C)ccc(C(=O)NC(C(N)=O)C(C)O)c3nc-2c(C(=O)NC(C(N)=O)C(C)O)c(N)c1=O (stereo not shown) [NSC407188] | – |
| 93.54 | – | – | O=C(C(=O)N1CCC(O)(CO)CC1)c1c(-c2ccccc2)cc2ccccn12 [ZCL1137] | – |
| 64.92 | – | – | CC1(C)OCC(C2OC(O)C3OC(C)(C)OC32)O1 (stereo not shown) [NSC25268] | – |
| 28.67 | – | – | NC(=O)c1ccsc1NC(=O)c1cc(-c2cccc(Br)c2)nc2ccc(Cl)cc12 [ZCL1125] | – |
| – | 92.160 | 15.832 | OCN1CCC2N(CO)CCC3N(CO)CCC1N23 (stereo not shown) [NSC81461] | – |
| 46.77 | – | – | NC(=O)c1cc([N+](=O)[O-])ccc1NCCN1C(=O)C2C(C1=O)[C@H]1C=C[C@@H]2C1 (stereo partly shown) [ZCL1118] | – |
| 98.5 | – | – | O=C(Nc1ccc(S(=O)(=O)Nc2cccc3ccccc23)cc1)Nc1cccc(Cl)c1 [ZCL1127] | – |
| 104.15 | – | – | O=C(CCCN1C(=O)/C(=C2\SC(=S)N(CCCC(=O)Nc3ccccc3O)C2=O)SC1=S)Nc1ccccc1O [ZCL1110] | – |
| – | 82.316 | 20.812 | CC1(C)OC2COC(c3[nH]nc(C(N)=O)c3C(=O)N=[N+]=[N-])C2O1 (stereo not shown) [NSC136024] | – |
| 74.15 | – | – | O=C(CSCc1ccccc1)Nc1ccc(C(=O)O)cc1NC(=O)CSCc1ccccc1 [ZCL1117] | – |
| 29.97 | – | – | O=C(CCCN1C(=O)/C(=C2\SC(=S)N(CCCC(=O)Nc3ccccc3O)C2=O)SC1=S)Nc1ccccc1O [ZCL1100] | – |
| – | 96.811 | 45.056 | c1ccc(-c2nc3c(c(NCc4cn5ccsc5n4)n2)CCNC3)cc1 [ZCL1143] | – |
| 62.37 | – | – | O=C1C2C(C(=O)N1/N=C/c1c(O)ccc3ccccc13)[C@H]1C=CC2C12CC2 (stereo partly shown) [ZCL1107] | – |
| – | 97.542 | 63.125 | CC(=O)Nc1ccc(Nc2nc(-c3ccc(O)cc3)cs2)cc1 [ZCL1124] | – |
| 3.42 | – | – | CCCCCn1c(O)c(C(=O)Nc2ccccc2S(N)(=O)=O)c(=O)c2ccccc21 [ZCL1105] | – |
| 27.33 | – | – | OCCNC[C@H](O)Cn1c(-c2ccccc2)c(-c2ccccc2)c2ccc3ccccc3c21 [ZCL1115] | – |
| – | 98.499 | 69.001 | O=C(c1ccccc1O)N1CCOc2c(O)cc(-c3nc4ccccc4s3)cc2C1 [ZCL1142] | – |
| 81.19 | – | – | C[C@H](Oc1cccc(Cl)c1)C(=O)Nc1ccccc1NC(=O)[C@H](C)Oc1cccc(Cl)c1 [ZCL1120] | – |
| – | – | – | c1ccc(-c2nc3c(c(NCc4cn5ccsc5n4)n2)CCNC3)cc1 [ZCL1144] | % ZCL278 (activator activity): 454.3% |
| – | 185.829 | 9.098 | Cc1cn(C2OC(C(O)C(N)=O)C(O)C2O)c(=O)[nH]c1=O (stereo not shown) [NSC111600] | – |
| 62.98 | – | – | NC(=O)c1[nH]nc(C2OC(CO)C(O)C2O)c1O (stereo not shown) [NSC143095] | – |
